Reference: ChEMBL document CHEMBL4390652, “Design, biological evaluation and X-ray crystallography of nanomolar multifunctional ligands targeting simultaneously acetylcholinesterase and glycogen synthase kinase-3” (Eur J Med Chem, 2019)
pIC50: −log10 of the molar value.

Columns and labels:
[1] = biological target: Phosphatidylinositol 4,5-bisphosphate 3-kinase catalytic subunit delta isoform (Homo sapiens) (UniProt O00329); experiment: Binding affinity to wild-type human partial length PIK3CD (R108 to Q1044 residues) expressed in mammalian expression system assessed as residual binding level at 10 uM by Kinomescan method relative to control
[2] = biological target: Dual specificity protein kinase CLK3 (Homo sapiens) (UniProt P49761); experiment: Binding affinity to wild-type human full length CLK3 (M1 to R490 residues) expressed in bacterial expression system assessed as residual binding level at 10 uM by Kinomescan method relative to control
[3] = test system: Epidermal growth factor receptor (Homo sapiens), P00533 [UNDEFINED MUTATION]; experiment: Binding affinity to human partial length EGFR E746-A750del mutant expressed in bacterial expression system assessed as residual binding level at 10 uM by Kinomescan method relative to control
Chain of Epidermal growth factor receptor (Homo sapiens), P00533 [UNDEFINED MUTATION] (P00533 whole entry, looked up, stated change not applied, the tested form may be a part): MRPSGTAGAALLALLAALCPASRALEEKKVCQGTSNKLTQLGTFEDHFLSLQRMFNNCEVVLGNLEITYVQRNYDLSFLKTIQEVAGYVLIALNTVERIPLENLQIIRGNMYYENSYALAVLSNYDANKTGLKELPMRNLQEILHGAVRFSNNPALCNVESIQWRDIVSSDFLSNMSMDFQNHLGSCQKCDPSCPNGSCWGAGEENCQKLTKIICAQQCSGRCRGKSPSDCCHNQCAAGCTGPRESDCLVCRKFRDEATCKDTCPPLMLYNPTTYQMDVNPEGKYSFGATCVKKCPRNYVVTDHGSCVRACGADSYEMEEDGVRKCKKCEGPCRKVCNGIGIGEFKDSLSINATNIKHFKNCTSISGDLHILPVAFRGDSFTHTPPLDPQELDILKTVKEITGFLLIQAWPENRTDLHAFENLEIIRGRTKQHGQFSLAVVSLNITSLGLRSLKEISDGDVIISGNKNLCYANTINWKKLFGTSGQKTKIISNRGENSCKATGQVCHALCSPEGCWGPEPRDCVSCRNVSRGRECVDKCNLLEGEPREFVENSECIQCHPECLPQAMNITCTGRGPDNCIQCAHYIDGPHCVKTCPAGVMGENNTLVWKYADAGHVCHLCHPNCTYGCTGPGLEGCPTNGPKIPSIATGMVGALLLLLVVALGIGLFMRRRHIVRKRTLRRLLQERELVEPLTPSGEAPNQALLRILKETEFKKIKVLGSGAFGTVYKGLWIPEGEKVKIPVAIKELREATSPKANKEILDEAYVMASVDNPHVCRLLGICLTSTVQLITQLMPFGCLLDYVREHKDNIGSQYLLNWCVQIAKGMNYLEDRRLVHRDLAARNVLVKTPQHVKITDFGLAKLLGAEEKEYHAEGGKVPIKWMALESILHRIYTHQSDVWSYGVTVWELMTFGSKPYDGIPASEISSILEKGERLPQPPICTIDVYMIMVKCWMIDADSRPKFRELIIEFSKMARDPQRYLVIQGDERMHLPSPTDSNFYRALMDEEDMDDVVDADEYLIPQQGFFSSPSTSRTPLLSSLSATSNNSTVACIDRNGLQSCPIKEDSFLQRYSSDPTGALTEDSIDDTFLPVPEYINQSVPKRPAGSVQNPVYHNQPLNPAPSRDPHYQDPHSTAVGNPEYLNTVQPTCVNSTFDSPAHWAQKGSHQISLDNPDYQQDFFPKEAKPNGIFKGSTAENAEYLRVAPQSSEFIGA

[4] = biological target: Dual specificity mitogen-activated protein kinase kinase 2 (Homo sapiens) (UniProt P36507); experiment: Binding affinity to wild-type human full length MEK2 (M1 to V400 residues) expressed in mammalian expression system assessed as residual binding level at 10 uM by Kinomescan method relative to control
[5] = biological target: TGF-beta receptor type-1 (Homo sapiens) (UniProt P36897); experiment: Binding affinity to wild-type human partial length TGFBR1 (D179 to M503 residues) expressed in bacterial expression system assessed as residual binding level at 10 uM by Kinomescan method relative to control
[6] = biological target: Phosphatidylinositol 4-phosphate 3-kinase C2 domain-containing subunit beta (Homo sapiens) (UniProt O00750); experiment: Binding affinity to wild-type human partial length PIK3C2B (M1 to L1634 residues) expressed in mammalian expression system assessed as residual binding level at 10 uM by Kinomescan method relative to control
[7] = biological target: Dual specificity mitogen-activated protein kinase kinase 1 (Homo sapiens) (UniProt Q02750); experiment: Binding affinity to wild-type human full length MEK1 (M1 to V393 residues) expressed in mammalian expression system assessed as residual binding level at 10 uM by Kinomescan method relative to control
[8] = biological target: Ephrin type-A receptor 5 (Homo sapiens) (UniProt P54756); experiment: Binding affinity to wild-type human partial length EPHA5 (T627 to V930 residues) expressed in bacterial expression system assessed as residual binding level at 10 uM by Kinomescan method relative to control
[9] = biological target: Non-receptor tyrosine-protein kinase TNK1 (Homo sapiens) (UniProt Q13470); experiment: Binding affinity to wild-type human full length TNK1 (M1 to P661 residues) expressed in bacterial expression system assessed as residual binding level at 10 uM by Kinomescan method relative to control
[10] = biological target: Acetylcholinesterase (Homo sapiens, UniProt P22303); experiment: Inhibition of human recombinant AChE using ATCh as substrate preincubated for 20 mins followed by substrate addition and measured for 3 mins by Ellman method
[11] = biological target: Bone morphogenetic protein receptor type-1B (Homo sapiens) (UniProt O00238); experiment: Binding affinity to wild-type human partial length BMPR1B (D178 to L502 residues) expressed in mammalian expression system assessed as residual binding level at 10 uM by Kinomescan method relative to control
[12] = biological target: Mitogen-activated protein kinase kinase kinase 7 (Homo sapiens) (UniProt O43318); experiment: Binding affinity to wild-type human partial length TAK1 (M1 to Q303 residues) expressed in mammalian expression system assessed as residual binding level at 10 uM by Kinomescan method relative to control
[13] = test system: Phosphatidylinositol 4,5-bisphosphate 3-kinase catalytic subunit alpha isoform (Homo sapiens), P42336 [I800L]; experiment: Binding affinity to human partial length PIK3CA I800L mutant (R108 to N1068 residues) expressed in mammalian expression system assessed as residual binding level at 10 uM by Kinomescan method relative to control
[14] = biological target: RAC-gamma serine/threonine-protein kinase (Homo sapiens) (UniProt Q9Y243); experiment: Binding affinity to wild-type human partial length AKT3 expressed in bacterial expression system assessed as residual binding level at 10 uM by Kinomescan method relative to control
[15] = biological target: Serine/threonine-protein kinase WNK4 (Homo sapiens) (UniProt Q96J92); experiment: Binding affinity to wild-type human partial length WNK4 (A31 to D461 residues) expressed in mammalian expression system assessed as residual binding level at 10 uM by Kinomescan method relative to control
[16] = biological target: Serine/threonine-protein kinase Chk1 (Homo sapiens) (UniProt O14757); experiment: Binding affinity to wild-type human partial length CHEK1 (M1 to G289 residues) expressed in bacterial expression system assessed as residual binding level at 10 uM by Kinomescan method relative to control
Chain of Serine/threonine-protein kinase Chk1 (Homo sapiens) (O14757 whole entry, the tested form may be a part): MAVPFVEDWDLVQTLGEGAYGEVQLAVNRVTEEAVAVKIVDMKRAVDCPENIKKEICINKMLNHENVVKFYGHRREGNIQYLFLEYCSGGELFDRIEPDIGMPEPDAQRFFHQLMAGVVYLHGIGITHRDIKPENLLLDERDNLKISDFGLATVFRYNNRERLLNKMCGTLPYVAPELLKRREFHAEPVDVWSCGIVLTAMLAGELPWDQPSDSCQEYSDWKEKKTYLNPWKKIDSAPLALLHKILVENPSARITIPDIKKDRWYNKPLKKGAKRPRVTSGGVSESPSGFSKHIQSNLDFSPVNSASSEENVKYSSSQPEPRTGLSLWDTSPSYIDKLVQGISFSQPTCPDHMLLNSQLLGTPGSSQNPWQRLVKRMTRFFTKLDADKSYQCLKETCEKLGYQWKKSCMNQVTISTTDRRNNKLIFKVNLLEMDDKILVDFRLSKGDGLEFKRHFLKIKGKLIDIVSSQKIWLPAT

[17] = biological target: Myosin light chain kinase, smooth muscle (Homo sapiens) (UniProt Q15746); experiment: Binding affinity to wild-type human full length MYLK (M854 to E1845 residues) expressed in mammalian expression system assessed as residual binding level at 10 uM by Kinomescan method relative to control
[18] = test system: NCI-H727; experiment: Cytotoxicity against human NCI-H727 cells assessed as growth inhibition incubated for 48 hrs by Hoechst 33342 staining based assay; type: cell-based; conditions: NCI-H727, 48 h
[19] = biological target: Aurora kinase B (Homo sapiens) (UniProt Q96GD4); experiment: Binding affinity to wild-type human partial length AURKB (D25 to A303 residues) expressed in mammalian expression system assessed as residual binding level at 10 uM by Kinomescan method relative to control
Chain of Aurora kinase B (Homo sapiens) (Q96GD4 whole entry, the tested form may be a part): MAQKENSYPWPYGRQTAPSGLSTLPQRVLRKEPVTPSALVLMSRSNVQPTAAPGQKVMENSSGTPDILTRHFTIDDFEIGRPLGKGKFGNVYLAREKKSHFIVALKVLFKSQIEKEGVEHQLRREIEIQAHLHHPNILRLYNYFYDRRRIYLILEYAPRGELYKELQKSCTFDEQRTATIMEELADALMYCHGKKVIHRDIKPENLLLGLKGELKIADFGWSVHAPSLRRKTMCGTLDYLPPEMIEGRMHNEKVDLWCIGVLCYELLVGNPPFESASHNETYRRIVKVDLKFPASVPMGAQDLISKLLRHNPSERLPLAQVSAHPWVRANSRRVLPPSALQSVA

[20] = biological target: Interferon-induced, double-stranded RNA-activated protein kinase (Homo sapiens) (UniProt P19525); experiment: Binding affinity to wild-type human partial length PRKR (F247 to C551 residues) expressed in bacterial expression system assessed as residual binding level at 10 uM by Kinomescan method relative to control
[21] = test system: Phosphatidylinositol 4,5-bisphosphate 3-kinase catalytic subunit alpha isoform (Homo sapiens), P42336 [H1047L]; experiment: Binding affinity to human partial length PIK3CA H1047L mutant (R108 to N1068 residues) expressed in mammalian expression system assessed as residual binding level at 10 uM by Kinomescan method relative to control
Chain of Phosphatidylinositol 4,5-bisphosphate 3-kinase catalytic subunit alpha isoform (Homo sapiens), P42336 [H1047L] (P42336 whole entry H1047L, the tested form may be a part, canonical isoform): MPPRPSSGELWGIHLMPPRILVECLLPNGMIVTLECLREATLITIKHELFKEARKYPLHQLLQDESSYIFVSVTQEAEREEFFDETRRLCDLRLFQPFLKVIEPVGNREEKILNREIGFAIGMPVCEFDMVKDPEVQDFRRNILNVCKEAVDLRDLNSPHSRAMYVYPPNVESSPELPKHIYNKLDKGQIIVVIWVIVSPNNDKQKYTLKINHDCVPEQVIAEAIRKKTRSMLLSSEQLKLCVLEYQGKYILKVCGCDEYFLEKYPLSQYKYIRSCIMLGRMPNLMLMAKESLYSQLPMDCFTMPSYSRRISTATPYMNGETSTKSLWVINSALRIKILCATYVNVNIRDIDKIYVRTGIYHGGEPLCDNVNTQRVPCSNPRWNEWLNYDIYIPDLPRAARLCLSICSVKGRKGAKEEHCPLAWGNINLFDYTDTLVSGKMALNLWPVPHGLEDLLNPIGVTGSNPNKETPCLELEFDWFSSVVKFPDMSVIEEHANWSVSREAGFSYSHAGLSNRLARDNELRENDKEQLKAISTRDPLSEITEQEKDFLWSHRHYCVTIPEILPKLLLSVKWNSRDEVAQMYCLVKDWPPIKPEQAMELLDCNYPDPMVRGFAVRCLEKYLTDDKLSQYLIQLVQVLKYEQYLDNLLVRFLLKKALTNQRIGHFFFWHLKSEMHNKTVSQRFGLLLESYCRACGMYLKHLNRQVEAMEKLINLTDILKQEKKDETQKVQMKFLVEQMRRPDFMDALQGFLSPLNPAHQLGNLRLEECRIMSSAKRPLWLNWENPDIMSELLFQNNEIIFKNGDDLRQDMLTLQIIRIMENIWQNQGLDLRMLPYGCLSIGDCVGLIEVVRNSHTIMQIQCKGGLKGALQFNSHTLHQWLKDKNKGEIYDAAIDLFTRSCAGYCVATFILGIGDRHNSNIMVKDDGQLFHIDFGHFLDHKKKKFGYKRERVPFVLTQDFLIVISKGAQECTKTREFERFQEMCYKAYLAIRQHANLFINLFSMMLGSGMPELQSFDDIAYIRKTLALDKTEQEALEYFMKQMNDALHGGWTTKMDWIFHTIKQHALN

[22] = biological target: Serine/threonine-protein kinase N1 (Homo sapiens) (UniProt Q16512); experiment: Binding affinity to wild-type human partial length PKN1 (E598 to C948 residues) expressed in bacterial expression system assessed as residual binding level at 10 uM by Kinomescan method relative to control
Chain of Serine/threonine-protein kinase N1 (Homo sapiens) (Q16512 2-942 limits assumed): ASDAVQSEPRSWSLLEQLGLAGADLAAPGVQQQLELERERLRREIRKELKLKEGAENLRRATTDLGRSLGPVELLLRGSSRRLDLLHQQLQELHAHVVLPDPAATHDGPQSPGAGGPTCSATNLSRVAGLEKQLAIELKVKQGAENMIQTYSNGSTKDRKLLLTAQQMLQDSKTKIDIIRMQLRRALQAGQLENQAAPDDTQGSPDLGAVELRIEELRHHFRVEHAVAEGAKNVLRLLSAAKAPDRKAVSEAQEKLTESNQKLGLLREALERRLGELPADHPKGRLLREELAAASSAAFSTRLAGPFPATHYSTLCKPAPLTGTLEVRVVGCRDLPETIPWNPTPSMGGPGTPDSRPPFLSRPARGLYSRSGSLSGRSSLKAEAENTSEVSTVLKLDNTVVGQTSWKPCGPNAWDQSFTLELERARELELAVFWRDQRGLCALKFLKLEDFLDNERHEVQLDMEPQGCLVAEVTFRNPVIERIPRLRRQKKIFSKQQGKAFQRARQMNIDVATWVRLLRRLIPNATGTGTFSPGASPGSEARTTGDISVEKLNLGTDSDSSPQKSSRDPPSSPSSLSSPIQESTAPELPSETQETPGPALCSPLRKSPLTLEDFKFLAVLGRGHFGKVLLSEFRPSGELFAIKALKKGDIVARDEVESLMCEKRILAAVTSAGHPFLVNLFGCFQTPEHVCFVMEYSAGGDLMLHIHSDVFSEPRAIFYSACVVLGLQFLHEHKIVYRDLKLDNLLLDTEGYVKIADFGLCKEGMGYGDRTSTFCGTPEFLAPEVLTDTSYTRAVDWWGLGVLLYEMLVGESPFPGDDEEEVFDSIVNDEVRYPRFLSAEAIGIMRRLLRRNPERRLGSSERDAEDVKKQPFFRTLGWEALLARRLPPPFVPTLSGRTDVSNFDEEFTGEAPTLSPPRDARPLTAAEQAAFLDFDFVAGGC

[23] = biological target: Serine/threonine-protein kinase TAO2 (Homo sapiens) (UniProt Q9UL54); experiment: Binding affinity to wild-type human partial length TAOK2 (M1 to A320 residues) expressed in mammalian expression system assessed as residual binding level at 10 uM by Kinomescan method relative to control
[24] = biological target: Ephrin type-A receptor 8 (Homo sapiens) (UniProt P29322); experiment: Binding affinity to wild-type human partial length EPHA8 (Q608 to C920 residues) expressed in bacterial expression system assessed as residual binding level at 10 uM by Kinomescan method relative to control
[25] = biological target: Serine/threonine-protein kinase SIK1 (Homo sapiens) (UniProt P57059); experiment: Binding affinity to wild-type human partial length SIK (M1 to Y304 residues) expressed in bacterial expression system assessed as residual binding level at 10 uM by Kinomescan method relative to control
Chain of Serine/threonine-protein kinase SIK1 (Homo sapiens) (P57059 whole entry, the tested form may be a part): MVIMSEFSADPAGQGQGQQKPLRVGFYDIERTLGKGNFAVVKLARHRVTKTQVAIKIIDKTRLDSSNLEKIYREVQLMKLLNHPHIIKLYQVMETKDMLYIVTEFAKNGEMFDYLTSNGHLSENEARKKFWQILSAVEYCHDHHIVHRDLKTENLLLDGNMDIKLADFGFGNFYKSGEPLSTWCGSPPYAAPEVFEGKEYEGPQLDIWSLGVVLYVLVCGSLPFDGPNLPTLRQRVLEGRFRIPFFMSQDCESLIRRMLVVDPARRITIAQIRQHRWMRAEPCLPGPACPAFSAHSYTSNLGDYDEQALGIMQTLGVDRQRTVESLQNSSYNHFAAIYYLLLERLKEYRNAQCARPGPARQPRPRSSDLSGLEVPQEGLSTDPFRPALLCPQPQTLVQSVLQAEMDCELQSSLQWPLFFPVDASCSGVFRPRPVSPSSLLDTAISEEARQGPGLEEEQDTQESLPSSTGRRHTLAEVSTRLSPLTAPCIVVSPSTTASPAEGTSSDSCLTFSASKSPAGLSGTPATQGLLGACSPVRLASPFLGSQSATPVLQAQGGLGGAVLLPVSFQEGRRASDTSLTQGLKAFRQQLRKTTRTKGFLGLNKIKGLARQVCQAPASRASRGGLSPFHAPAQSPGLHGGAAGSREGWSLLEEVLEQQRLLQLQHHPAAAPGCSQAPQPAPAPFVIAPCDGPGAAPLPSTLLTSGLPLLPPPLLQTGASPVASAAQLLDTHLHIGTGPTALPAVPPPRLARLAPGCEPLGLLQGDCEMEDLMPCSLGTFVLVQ

O=C(Nc1cc(-c2cn(CCNc3c4c(nc5ccccc35)CCCC4)nn2)ccn1)Nc1cccc2c1C1CCCCN1C2=O (racemic)
Activity [1]: 100% | Activity [2]: 100% | Activity [3]: 79% | Activity [4]: 11% | Activity [5]: 74% | Activity [6]: 51% | Activity [7]: 7.6% | Activity [8]: 81% | Activity [9]: 48% | pIC50 [10]: 7.94 | Activity [11]: 25% | Activity [12]: 1.6% | Activity [13]: 55% | Activity [14]: 100% | Activity [15]: 100% | Activity [16]: 92% | Activity [17]: 52% | pIC50 [18]: 5.70 | Activity [19]: 5.6% | Activity [20]: 45% | Activity [21]: 93% | Activity [22]: 18% | Activity [23]: 56% | Activity [24]: 80% | Activity [25]: 73%
